PubChem BioAssay AID1918949 (Molecular Pharmacology Branch, DTP, NCI, 2023)
Several values for one entry are separate records, joined by “and”; a condition that tells them apart may be missing. Equal entries are not always repeated.

System: K24384-001-R-PDC complex spheroid viability
Test: Anticancer human tumor K24384-001-R-PDC patient-derived pancreatic adenocarcinoma cell line growth inhibition
Settings: for viability, T/C: stronger effect = lower value
Procedure, shortened: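 Complex spheroids of tumor cells with HUVEC and human MSCs, exposed to iadademstat combined with other agents. Each agent tested in half-log steps from near clinical Cmax (else 10 microM top), DMSO ≤0.25%.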

[1] = curve of first compound, second compound 0.1 µM
[2] = curve of first compound, second compound 0.316 µM
[3] = curve of first compound, second compound 1 µM
[4] = curve of first compound, second compound 3.16 µM
[5] = curve of first compound, second compound 10 µM
[6] = second compound 0.1 µM, first compound 0.00949 µM
[7] = second compound 0.1 µM, first compound 0.03 µM
[8] = second compound 0.1 µM, first compound 0.0949 µM
[9] = second compound 0.1 µM, first compound 0.3 µM
[10] = second compound 0.316 µM, first compound 0.00949 µM
[11] = second compound 0.316 µM, first compound 0.03 µM
[12] = second compound 0.316 µM, first compound 0.0949 µM
[13] = second compound 0.316 µM, first compound 0.3 µM
[14] = second compound 1 µM, first compound 0.00949 µM
[15] = second compound 1 µM, first compound 0.03 µM
[16] = second compound 1 µM, first compound 0.0949 µM
[17] = second compound 1 µM, first compound 0.3 µM
[18] = second compound 3.16 µM, first compound 0.00949 µM
[19] = second compound 3.16 µM, first compound 0.03 µM
[20] = second compound 3.16 µM, first compound 0.0949 µM
[21] = second compound 3.16 µM, first compound 0.3 µM
[22] = second compound 10 µM, first compound 0.00949 µM
[23] = second compound 10 µM, first compound 0.03 µM
[24] = second compound 10 µM, first compound 0.0949 µM
[25] = second compound 10 µM, first compound 0.3 µM
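Note: spheroids exposed to agents for seven days before luminescence viability reading.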
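Throughout, for viability, T/C: 100% = DMSO vehicle control viability.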

SMILES: Nc1ncn(C2CC(O)C(CO)S2)c(=O)n1 (configuration not stated) + NC1CC1c1ccc(-c2cccc(O)c2)cc1
- IC50 [1]: > 300 nM
- IC50 [2]: > 300 nM
- IC50 [3]: > 300 nM
- IC50 [4]: > 300 nM
- IC50 [5]: > 300 nM
- viability, T/C (second compound 0.1 µM, first compound 0.000949 µM): 102%
- viability, T/C (second compound 0.1 µM, first compound 0.003 µM): 133%
- viability, T/C [6]: 101%
- viability, T/C [7]: 89.8%
- viability, T/C [8]: 67.3%
- viability, T/C [9]: 54.9%
- viability, T/C (second compound 0.316 µM, first compound 0.000949 µM): 102%
- viability, T/C (second compound 0.316 µM, first compound 0.003 µM): 97.1%
- viability, T/C [10]: 103%
- viability, T/C [11]: 87.1%
- viability, T/C [12]: 72.2%
- viability, T/C [13]: 52.1%
- viability, T/C (second compound 1 µM, first compound 0.000949 µM): 124%
- viability, T/C (second compound 1 µM, first compound 0.003 µM): 110%
- viability, T/C [14]: 99.2%
- viability, T/C [15]: 87.8%
- viability, T/C [16]: 73.1%
- viability, T/C [17]: 50.6%
- viability, T/C (second compound 3.16 µM, first compound 0.000949 µM): 108%
- viability, T/C (second compound 3.16 µM, first compound 0.003 µM): 113%
- viability, T/C [18]: 108%
- viability, T/C [19]: 108%
- viability, T/C [20]: 92.6%
- viability, T/C [21]: 56.2%
- viability, T/C (second compound 10 µM, first compound 0.000949 µM): 136%
- viability, T/C (second compound 10 µM, first compound 0.003 µM): 131%
- viability, T/C [22]: 120%
- viability, T/C [23]: 108%
- viability, T/C [24]: 95.3%
- viability, T/C [25]: 57.2%

SMILES: CC[C@@]1(O)C(=O)OCc2c1cc1n(c2=O)Cc2cc3c(CN(C)C)c(O)ccc3nc2-1 + NC1CCC(NC2CC2c2ccccc2)CC1
- IC50 [1]: 89.9 nM
- IC50 [2]: > 100 nM
- IC50 [3]: 88.6 nM
- IC50 [4]: 84.5 nM
- IC50 [5]: > 100 nM
- viability, T/C (second compound 0.1 µM, first compound 0.000316 µM): 93.1%
- viability, T/C (second compound 0.1 µM, first compound 0.001 µM): 87.2%
- viability, T/C (second compound 0.1 µM, first compound 0.00316 µM): 77.6%
- viability, T/C (second compound 0.1 µM, first compound 0.01 µM): 68.9%
- viability, T/C (second compound 0.1 µM, first compound 0.0316 µM): 61.2%
- viability, T/C (second compound 0.1 µM, first compound 0.1 µM): 48.1%
- viability, T/C (second compound 0.316 µM, first compound 0.000316 µM): 99.3%
- viability, T/C (second compound 0.316 µM, first compound 0.001 µM): 81.2%
- viability, T/C (second compound 0.316 µM, first compound 0.00316 µM): 82.3%
- viability, T/C (second compound 0.316 µM, first compound 0.01 µM): 84%
- viability, T/C (second compound 0.316 µM, first compound 0.0316 µM): 70.2%
- viability, T/C (second compound 0.316 µM, first compound 0.1 µM): 49.6%
- viability, T/C (second compound 1 µM, first compound 0.000316 µM): 89.5%
- viability, T/C (second compound 1 µM, first compound 0.001 µM): 82.7%
- viability, T/C (second compound 1 µM, first compound 0.00316 µM): 75.5%
- viability, T/C (second compound 1 µM, first compound 0.01 µM): 59%
- viability, T/C (second compound 1 µM, first compound 0.0316 µM): 54.6%
- viability, T/C (second compound 1 µM, first compound 0.1 µM): 49%
- viability, T/C (second compound 3.16 µM, first compound 0.000316 µM): 93.7%
- viability, T/C (second compound 3.16 µM, first compound 0.001 µM): 91.8%
- viability, T/C (second compound 3.16 µM, first compound 0.00316 µM): 81%
- viability, T/C (second compound 3.16 µM, first compound 0.01 µM): 77%
- viability, T/C (second compound 3.16 µM, first compound 0.0316 µM): 64.5%
- viability, T/C (second compound 3.16 µM, first compound 0.1 µM): 47%
- viability, T/C (second compound 10 µM, first compound 0.000316 µM): 101%
- viability, T/C (second compound 10 µM, first compound 0.001 µM): 88.2%
- viability, T/C (second compound 10 µM, first compound 0.00316 µM): 88.7%
- viability, T/C (second compound 10 µM, first compound 0.01 µM): 61.7%
- viability, T/C (second compound 10 µM, first compound 0.0316 µM): 53.9%
- viability, T/C (second compound 10 µM, first compound 0.1 µM): 49.8%

SMILES: CCN(c1cc(-c2ccc(CN3CCOCC3)cc2)cc(C(=O)NCc2c(C)cc(C)[nH]c2=O)c1C)C1CCOCC1 + NC1CCC(NC2CC2c2ccccc2)CC1
- IC50 [1]: > 3000 nM
- IC50 [2]: > 3000 nM
- IC50 [3]: > 3000 nM
- IC50 [4]: > 3000 nM
- IC50 [5]: > 3000 nM
- viability, T/C [6]: 96%
- viability, T/C [7]: 80.3%
- viability, T/C [8]: 80.6%
- viability, T/C [9]: 107%
- viability, T/C (second compound 0.1 µM, first compound 0.949 µM): 86.5%
- viability, T/C (second compound 0.1 µM, first compound 3 µM): 57.5%
- viability, T/C [10]: 96.7%
- viability, T/C [11]: 92.1%
- viability, T/C [12]: 94.7%
- viability, T/C [13]: 92.1%
- viability, T/C (second compound 0.316 µM, first compound 0.949 µM): 93.7%
- viability, T/C (second compound 0.316 µM, first compound 3 µM): 71.1%
- viability, T/C [14]: 98.4%
- viability, T/C [15]: 84.3%
- viability, T/C [16]: 103%
- viability, T/C [17]: 83.7%
- viability, T/C (second compound 1 µM, first compound 0.949 µM): 82.2%
- viability, T/C (second compound 1 µM, first compound 3 µM): 62.9%
- viability, T/C [18]: 81.3%
- viability, T/C [19]: 104%
- viability, T/C [20]: 91.6%
- viability, T/C [21]: 79.1%
- viability, T/C (second compound 3.16 µM, first compound 0.949 µM): 73%
- viability, T/C (second compound 3.16 µM, first compound 3 µM): 70.2%
- viability, T/C [22]: 80.3%
- viability, T/C [23]: 82.7%
- viability, T/C [24]: 98.8%
- viability, T/C [25]: 73.7%
- viability, T/C (second compound 10 µM, first compound 0.949 µM): 79.1%
- viability, T/C (second compound 10 µM, first compound 3 µM): 70.5%

SMILES: CC(C)CC(NC(=O)C(Cc1ccccc1)NC(=O)c1cnccn1)B(O)O (configuration not stated)
- viability, T/C (compound 0.000316 µM): 81.2% and 95.6%
- viability, T/C (compound 0.001 µM): 1.67% and 1.46%
- viability, T/C (compound 0.00316 µM): 0.39% and 0.47%
- viability, T/C (compound 0.01 µM): 0.38%
- viability, T/C (compound 0.0316 µM): 0.34% and 0.41%
- viability, T/C (compound 0.1 µM): 0.36% and 0.35%
- IC50 (curve of compound): 0.497 nM and 0.552 nM
